Laboratory results taken from US20260272895A1, “METHODS AND KITS FOR DELIVERY OF COMPOUNDS INTO CELLS” (Yale University, priority 2023, published 2026).

Tests used:
NIH3T3 cells = assay: Assessment of pharmacological effects in vitro in NIH3T3 cells (tubulin staining, multinucleated cells); assay type: cell-based
Excerpt: Confocal microscopy of the different treatment groups allowed us to visualize Hoechst dye-labeled nuclei to quantify the proportion of cells with multinucleated phenotype which is known to occur with Colchicine treatments.

brain cell types = assay: In vivo two-photon imaging of mouse cortex after topical cortical administration of fluorophores; settings: for Target: cell type taking up the compound in vivo (Table 1); for cellular labeling in cortex: topical cortical administration, 50 μM, wild type mice; for in vivo endothelial labeling/uptake: two-photon images of mouse cortex, route and concentration not stated
Procedure: Briefly, animals are anaesthetized via intraperitoneal injections of ketamine/xylazine or via inhaled isoflurane. A region of the skull (3×3 mm) is gently removed with a high-speed drill and the underlying dura is removed. A small glass coverslip is placed over the skull to allow long term optical access for in vivo imaging. Labeling with fluorescent dyes is performed either via intravenous injections or topically application to the cortical surface for 20 min prior to glass cover placement. After recovery, in vivo images are acquired using a two-photon microscope (Bruker Technologies) equipped with a multimodal (fixed wavelength 1040 nm and tunable wavelength) InSight X3 two-photon laser (Spectra Physics) and 20× water immersion objective (Zeiss 1.0N.A.). The two-photon laser is appropriately tuned to excite particular fluorescent dyes and proteins as needed. In selected cases, following in vivo imaging, mice will be sacrificed and perfused for follow up immunohistochemistry and high-resolution confocal imaging (Leica SP8) to further confirm colocalization of dyes and cells expressing particular transporters.
One-month-old wild-type mice were anesthetized using a ketamine/xylazine solution at doses of 100 mg/kg and 10 mg/kg, respectively. The fur around the skull area was shaved, and buprenex (0.1 mg per kg) and carprofen (5 mg per kg) were administered subcutaneously. Mice were kept on a heating pad at 37° C., and anesthesia was periodically monitored. The skin was treated with povidone-iodine solution, followed by cleaning with ethanol, and eye ointment was applied. A small skin section was excised to expose the skull. Thinning of the skull was performed in a circular area, followed by delicately lifting of the remaining skull without harm to the underlying brain. Within the circular region, the dura was gently removed using fine forceps, and a 4 mm cover glass was softly pressed onto the brain surface and affixed to the skull. Fluorescent dyes were applied either through intravenous injections or topically to the cortical surface for 20 minutes before placing the glass cover. A customized head bar was attached either by adhesive (for acute imaging) or permanently implanted (using dental cement, for chronic imaging) onto the skull. Mice were imaged under a two-photon microscope (Prairie Technologies) with a mode-locked MaiTai tunable laser (Spectra Physics). Imaging was performed with a 20× water immersion objective (Zeiss, 1.0NA). Images were captured at depths up to 300 μm from the pial surface using excitation wavelengths ranging from 750 to 950 nm as previously described. Mice undergoing chronic imaging received a recovery period on a heating pad post-surgery, and buprenex (0.1 mg per kg) and carprofen (5 mg per kg) were administered for 3 days.
Batches of 10 compounds were applied through the craniotomy to the cortical surface before placing a cover glass window. No additional washings were performed, and the cover glass was placed, allowing up to 3 hours of imaging of the cortical surface with a two-photon microscope. Following imaging, the data were analyzed to identify potential patterns of cell-specific labeling. […] Positive batches underwent three additional rounds of imaging, with each batch being sequentially split, until a single compound displaying cell-type-specific labeling was identified. As these compounds were not initially purified, the labeling may have resulted from fluorescent byproducts of synthesis. Consequently, large-scale synthesis, purification and characterization (FIGS. 29A-29D) of the identified compounds were conducted. The purified compounds were subsequently retested using in vivo imaging to confirm cell type specificity.
It was reasoned that the best strategy to identify fluorophores with specific affinity to certain cell types and transport mechanisms would be by direct screening in the intact in vivo brain microenvironment. […]

COc1cc2c(c(OC)c1OC)-c1ccc(OC)c(=O)cc1[C@@H](NC(C)=O)CC2 [Colchicine]
alpha tubulin staining (NIH3T3 cells; 30 μM, NIH3T3 cells (FIG. 11A)): equal disruption of the tubulin structure | alpha tubulin staining (NIH3T3 cells; 100 μM, NIH3T3 cells (FIG. 11B)): equal disruption of the tubulin structure | phalloidin staining (NIH3T3 cells; 100 μM, NIH3T3 cells (FIG. 11D)): disruption of the tubulin structure | phalloidin staining (NIH3T3 cells; NIH3T3 cells (FIG. 11C), concentration not given): equal disruption of the tubulin structure | cell morphology / multinucleated cells (NIH3T3 cells; NIH3T3 cells (FIG. 17A)): changes in cell morphology and presence of multinucleated cells | pattern of α-tubulin immunofluorescence (NIH3T3 cells; NIH3T3 cells, 12 hours, varying concentrations (FIG. 17A)): diffuse labeling pattern

O=[N+]([O-])c1ccc2c(-c3ccc(S(=O)(=O)O)cc3S(=O)(=O)[O-])c3ccc(Br)cc3[o+]c2c1 [Compound 28, 2-(3-bromo-6-nitroxanthylium-9-yl)-5-sulfobenzenesulfonate]
Target (brain cell types): Endothelial

Cc1ccc2c(-c3ccc(S(=O)(=O)O)cc3S(=O)(=O)[O-])c3ccc(Br)cc3[o+]c2c1 [Compound 29]
Target (brain cell types): Endothelial

O=S(=O)([O-])c1cc(S(=O)(=O)O)ccc1-c1c2ccc(Br)cc2[o+]c2cc(N3CCOCC3)ccc12 [Compound 30, 2-(3-bromo-6-morpholinoxanthylium-9-yl)-5-sulfobenzenesulfonate]
Target (brain cell types): Endothelial

O=S(=O)([O-])c1cc(S(=O)(=O)O)ccc1-c1c2ccc(Br)cc2[o+]c2ccc(-n3ccnc3)cc12 [Compound 31, 2-(6-bromo-2-(1H-imidazol-1-yl)xanthylium-9-yl)-5-sulfobenzenesulfonate]
Target (brain cell types): Endothelial

O=S(=O)([O-])c1cc(S(=O)(=O)O)ccc1-c1c2ccc(Br)cc2[o+]c2ccc(S(=O)(=O)O)cc12 [Compound 32, 2-(6-bromo-2-sulfoxanthylium-9-yl)-5-sulfobenzenesulfonate]
Target (brain cell types): Endothelial

O=S(=O)([O-])c1cc(S(=O)(=O)O)ccc1-c1c2ccc(Br)cc2[o+]c2ccc(-n3cncn3)cc12 [Compound 33, 2-(6-bromo-2-(1H-1,2,4-triazol-1-yl)xanthylium-9-yl)-5-sulfobenzenesulfonate]
Target (brain cell types): Endothelial

O=[N+]([O-])c1ccc2c(c1)Oc1c3c4c(cc1=C2c1ccc(S(=O)(=O)O)cc1S(=O)(=O)[O-])CCC[N+]=4CCC3 [Compound 35, 2-(12-nitro-1,2,3,5,6,7-hexahydrochromeno[2,3-f]pyrido[3,2,1-ij]quinolin-4-ium-9-yl)-5-sulfobenzenesulfonate]
Target (brain cell types): Astrocyte

CN(C)c1ccc2c(c1)Oc1c3c4c(cc1=C2c1ccc(S(=O)(=O)O)cc1S(=O)(=O)[O-])CCC[N+]=4CCC3 [Compound 36, 2-(12-(dimethylamino)-1,2,3,5,6,7-hexahydrochromeno[2,3-f]pyrido[3,2,1-ij]quinolin-4-ium-9-yl)-5-sulfobenzenesulfonate]
Target (brain cell types): Astrocyte

O=C(O)CCc1ccc2c(c1)Oc1c3c4c(cc1=C2c1ccc(S(=O)(=O)O)cc1S(=O)(=O)[O-])CCC[N+]=4CCC3 [Compound 37, 2-(12-(2-carboxyethyl)-1,2,3,5,6,7-hexahydrochromeno[2,3-f]pyrido[3,2,1-ij]quinolin-4-ium-9-yl)-5-sulfobenzenesulfonate]
Target (brain cell types): Astrocyte

CN(C)c1ccc2c(-c3ccc(S(=O)(=O)O)cc3S(=O)(=O)[O-])c3cc(Br)ccc3[o+]c2c1 [Compound 38, 2-(2-bromo-6-(dimethylamino)xanthylium-9-yl)-5-sulfobenzenesulfonate]
Target (brain cell types): Astrocyte

CCN(CC)c1ccc2c(-c3ccc(S(=O)(=O)O)cc3S(=O)(=O)[O-])c3cc(Br)ccc3[o+]c2c1 [Compound 39, 2-(2-bromo-6-(diethylamino)xanthylium-9-yl)-5-sulfobenzenesulfonate]
Target (brain cell types): Endothelial

Cc1ccc2c(-c3ccc(S(=O)(=O)O)cc3S(=O)(=O)[O-])c3cc4c5c(c3[o+]c2c1)CCCN5CCC4 [Compound 40, 2-(12-methyl-2,3,6,7-tetrahydro-1H,5H-chromeno[2,3-f]pyrido[3,2,1-ij]quinolin-14-ium-9-yl)-5-sulfobenzenesulfonate]
Target (brain cell types): Endothelial

O=S(=O)([O-])c1cc(S(=O)(=O)O)ccc1-c1c2ccc(B(O)O)cc2[o+]c2c3c4c(cc12)CCCN4CCC3 [Compound 41, 2-(12-borono-2,3,6,7-tetrahydro-1H,5H-chromeno[2,3-f]pyrido[3,2,1-ij]quinolin-14-ium-9-yl)-5-sulfobenzenesulfonate]
Target (brain cell types): Endothelial

CN(C)c1ccc2c(-c3ccc(S(=O)(=O)O)cc3S(=O)(=O)[O-])c3ccc(Br)cc3[o+]c2c1 [Compound 42, 2-(3-bromo-6-(dimethylamino)xanthylium-9-yl)-5-sulfobenzenesulfonate]
Target (brain cell types): Endothelial

CN(C)c1ccc2c(-c3ccc(S(=O)(=O)O)cc3S(=O)(=O)[O-])c3ccc(N(C)C)cc3[o+]c2c1 [Compound 43, 2-(3,6-bis(dimethylamino)xanthylium-9-yl)-5-sulfobenzenesulfonate]
Target (brain cell types): Endothelial | cellular labeling in cortex (brain cell types): robust endothelial specific uptake

O=S(=O)([O-])c1cc(S(=O)(=O)O)ccc1C1=c2cc3c4c(c2Oc2cc5ccc(Br)cc5cc21)CCC[N+]=4CCC3 [Compound 44, 2-(12-bromo-1,2,3,5,6,7-hexahydrobenzo[6,7]chromeno[2,3-f]pyrido[3,2,1-ij]quinolin-4-ium-9-yl)-5-sulfobenzenesulfonate]
Target (brain cell types): Endothelial

O=S(=O)([O-])c1cc(S(=O)(=O)O)ccc1C1=c2cc3c4c(c2Oc2c1cc1ccccc1c2Br)CCC[N+]=4CCC3 [Compound 45, 2-(15-bromo-1,2,3,5,6,7-hexahydrobenzo[6,7]chromeno[2,3-f]pyrido[3,2,1-ij]quinolin-4-ium-9-yl)-5-sulfobenzenesulfonate]
Target (brain cell types): Endothelial

CCN(CC)c1ccc2c(-c3ccc(S(=O)(=O)O)cc3S(=O)(=O)[O-])c3ccc(N(CC)CC)cc3[o+]c2c1 [Compound 46, 2-(3,6-bis(diethylamino)xanthylium-9-yl)-5-sulfobenzenesulfonate]
Target (brain cell types): Endothelial

CC(=O)N(O)CCCCCNC(=O)CCC(=O)N(O)CCCCCNC(=O)CCC(=O)N(O)CCCCCNS(=O)(=O)c1ccc(-c2c3ccc(N(C)C)cc3[o+]c3cc(N(C)C)ccc23)c(S(=O)(=O)[O-])c1 [Compound 49, 2-(3,6-bis(dimethylamino)xanthylium-9-yl)-5-(N-(3,14,25-trihydroxy-2,10,13,21,24-pentaoxo-3,9,14,20,25-pentaazatriacontan-30-yl)sulfamoyl)benzenesulfonate]
in vivo endothelial labeling/uptake (brain cell types): robust endothelial cell body uptake

CN(C)c1ccc2c(-c3ccc(S(=O)(=O)Cl)cc3S(=O)(=O)[O-])c3ccc(N(C)C)cc3[o+]c2c1 [Compound 54, 2-(3,6-bis(dimethylamino)xanthylium-9-yl)-5-(chlorosulfonyl)benzenesulfonate]
cellular labeling in cortex (brain cell types): robust endothelial specific uptake

CN(C)c1ccc2c(-c3ccc(S(=O)(=O)NCCNC(=O)OC(C)(C)C)cc3S(=O)(=O)[O-])c3ccc(N(C)C)cc3[o+]c2c1 [Compound 55, 2-(3,6-bis(dimethylamino)xanthylium-9-yl)-5-(N-(2-((tert-butoxycarbonyl)amino)ethyl)sulfamoyl)benzenesulfonate]
in vivo endothelial labeling/uptake (brain cell types): robust endothelial cell body uptake

CCN(CC)c1ccc2c(-c3ccc(S(=O)(=O)NCCOCCOCCOCCOCCOCCOCCOCCOCCOCCOCCOCCOCCOCCOCCOCCOCCOCCOCCOCCOCCOCCOC)cc3S(=O)(=O)[O-])c3ccc(N(CC)CC)cc3[o+]c2c1 [Compound 56]
in vivo endothelial labeling/uptake (brain cell types): highly specific in vivo endothelial labeling

CCN(CC)c1ccc2c(-c3ccc(S(=O)(=O)NCCOCCOCCOCCOCCOCCOCCOCCOCCOCCOCCOCCOCCOCCOCCOCCOCCOCCOCCOCCOCCOCCOCCOCCOCCOCCOCCOCCOCCOCCOCCOCCOCCOCCOCCOCCOCCOCCOCCOCCOCCOCCOCCOCCOCCOC)cc3S(=O)(=O)[O-])c3ccc(N(CC)CC)cc3[o+]c2c1 [Compound 57]
in vivo endothelial labeling/uptake (brain cell types): highly specific in vivo endothelial labeling
